From PMC9329436, “Optimization of the 4-anilinoquin(az)oline scaffold as epidermal growth factor receptor (EGFR) inhibitors for chordoma utilizing a toxicology profiling assay platform” (Scientific Reports, 2022)
pIC50: −log10 of the molar value.

How the values were obtained:
U-CH1 chordoma cell line = assay: Cell viability assay (alamarBlue, 72 h), U-CH1; assay type: cell-based, human; conditions: n = 4, 72 h
Method: (§1) Chordoma cell lines were cultured as described previously[10],[12],[33],[34]. Briefly, U-CH1 and U-CH2 cell lines were cultured in 4:1 IMDM:RPMI medium supplemented with 10% fetal bovine serum (FBS) and 1% penicillin/streptomycin in gel-coated flasks. […] CH22, UM-Chor1, U-CH12, and U-CH7 cell lines were cultured in RPMI medium supplemented with 10% FBS and 1% penicillin/streptomycin. The cell lines all undergo regular mycoplasma screening.
(§2) Cells were seeded in 384 well plates and were treated with test compound in quadruplicate 24 h after plating. Cell viability was assessed at 72 h using alamarBlue (ThermoFisher, USA). […] IC50 values were determined by four-parameter nonlinear regression analyses using GraphPad Prism™ version 8 software (San Diego, CA).

U-CH2 chordoma cell line = assay: Cell viability assay (alamarBlue, 72 h), U-CH2; assay type: cell-based, human; conditions: n = 4, 72 h
Method: as §1, §2

HL60 cells = assay: AsedaSciences SYSTEMETRIC Cell Health Screen (flow cytometry toxicity profiling); conditions: HL60, 4 h, 5 nM–100 µM; for CC: Cell Cycle score / CM: Cell morphology score / CMI: Cell membrane integrity score / GSH: Glutathione score / MMP: Mitochondrial membrane depolarization score / NMI1: Nuclear membrane integrity 1 score / NMI2: Nuclear membrane integrity 2 score / ROS: Reactive superoxide species score: probability 0–1, n = 2; for CHI: Cell Health Index: probability (0–1) of high-risk class, n = 2
From the text: To prioritize further optimization, in addition to cellular potency, we utilized the AsedaSciences® […]® Cell Health Screen. This live cell flow cytometry (FC) screen was developed to assess human safety risk for candidate pharmaceutical small molecules at the early hit-to-lead stage of development. The screen works by estimating the risk using a supervised machine learning (ML) classifier to assess a multiparametric cellular stress phenotype, produced by the test compound, relative to a training set of known compounds (Table S1). This screen has been designed for early pipeline risk estimation regardless of pharmaceutical class/disease type, so it uses HL60 as the reporter cell line.
The ML classifier was trained with 300 historically known compounds (on market or withdrawn drugs, research compounds, etc.), which were divided into two outcome classes based upon literature, clinical trials, and market histories where applicable. This external curation informed an outcome of “high-risk” or “low-risk”. All 300 compounds were also processed through the automated FC screen, populating each of the two classes with frequency distributions of empirical cell-based phenotypes.
To estimate human safety risk for an unknown compound, the ML classifier assesses the similarity of the test compound’s cell-based phenotype to the distributions of phenotypes in the two outcome classes. […] Phenotypes are derived from twelve FC detection parameters, including light scatter and a series of fluorescent physiological reporter dyes, that track cell stress-related endpoints.
To produce the Cell Health Index, the ML classifier uses all twelve FC parameters simultaneously in a multidimensional logistic regression model, so the CHI contains the most predictive power. In addition to the Cell Health Index, Table 4 also reports probability scores for eight cell stress-related endpoints. These scores are produced individually by passing information to the ML classifier relating to parameters that inform that endpoint. For example, to produce the cell morphology (CM) score, the ML classifier only uses the FC detection parameters for forward scatter (informing change in cell diameter) and side scatter (informing change in optical granularity of the cell) to inform the model. Together, these eight endpoints provide a “biological fingerprint”, allowing assessment of the degree to which SAR series members behave differently across endpoints.
In a 384-well platform, HL60 cells were exposed to a 10-step, 3 × dilution series of each test compound (5 nM–100 µM) for 4 h at 37 °C with 5% CO2. Each dilution series was screened in duplicate, occupying a total of 20 wells, allowing 16 test compounds to be assayed per plate. Each row contained one positive and one negative control well, for a total of 16 replicate positive/negative control pairs on each assay plate. Compound formatting, cell deposition, and dye application were performed robotically so that final assay conditions comprised 100,000 cells in a 40 µL volume. After the 4 h compound exposure, cells were immediately stained with a panel of fluorescent dyes that report physiological signatures of both mitochondrial dysfunction and gross cell stress. Fluorescence and forward/side-scatter data were collected using automated FC with no gating. FC data are processed by an automated algorithm for producing quality control measures and ML classification of compound phenotypes. • 2. HL60 cell culture production
HL60 cells were produced as suspension cultures in glass 850 cm^2 roller bottles with vented caps, at 1 RPM, 5% CO2, and 37 °C. […] Culture density was maintained at or below 1 × 10^6 cells/mL.

C#Cc1cccc(Nc2ncnc3ccc(OC)cc23)c1 [Compound 2]
pIC50 (U-CH1 chordoma cell line): 5.85 | pIC50 (U-CH2 chordoma cell line): 4.33 | CC: Cell Cycle score (HL60 cells): 0.38 | CM: Cell morphology score (HL60 cells): 0.24 | CMI: Cell membrane integrity score (HL60 cells): 0.62 | GSH: Glutathione score (HL60 cells): 0.038 | MMP: Mitochondrial membrane depolarization score (HL60 cells): 0.019 | NMI1: Nuclear membrane integrity 1 score (HL60 cells): 0.42 | NMI2: Nuclear membrane integrity 2 score (HL60 cells): 0.068 | ROS: Reactive superoxide species score (HL60 cells): 0.17 | CHI: Cell Health Index (HL60 cells): 0.31

CN1CCN(CCCN2c3ccccc3Sc3ccc(Cl)cc32)CC1 [Prochlorperazine, reference compound]
CC: Cell Cycle score (HL60 cells): 0.96 | CM: Cell morphology score (HL60 cells): 1.00 | CMI: Cell membrane integrity score (HL60 cells): 1.00 | GSH: Glutathione score (HL60 cells): 1.00 | MMP: Mitochondrial membrane depolarization score (HL60 cells): 1.00 | NMI1: Nuclear membrane integrity 1 score (HL60 cells): 1.00 | NMI2: Nuclear membrane integrity 2 score (HL60 cells): 0.99 | ROS: Reactive superoxide species score (HL60 cells): 1.00

CC(CN1c2ccccc2Sc2ccccc21)N(C)C (stereo not shown) [Promethazine, reference compound]
CC: Cell Cycle score (HL60 cells): 0.46 | CM: Cell morphology score (HL60 cells): 1.00 | CMI: Cell membrane integrity score (HL60 cells): 0.98 | GSH: Glutathione score (HL60 cells): 0.96 | MMP: Mitochondrial membrane depolarization score (HL60 cells): 0.97 | NMI1: Nuclear membrane integrity 1 score (HL60 cells): 0.84 | NMI2: Nuclear membrane integrity 2 score (HL60 cells): 0.94 | ROS: Reactive superoxide species score (HL60 cells): 0.98 | CHI: Cell Health Index (HL60 cells): 0.71

CC(C)NCC(O)COc1cccc2ccccc12 (stereo not shown) [Propranolol, reference compound]
CC: Cell Cycle score (HL60 cells): 0.24 | CM: Cell morphology score (HL60 cells): 0.060 | CMI: Cell membrane integrity score (HL60 cells): 0.20 | GSH: Glutathione score (HL60 cells): 0.11 | MMP: Mitochondrial membrane depolarization score (HL60 cells): 0.010 | NMI1: Nuclear membrane integrity 1 score (HL60 cells): 0.69 | NMI2: Nuclear membrane integrity 2 score (HL60 cells): 0.23 | ROS: Reactive superoxide species score (HL60 cells): 0.18

NC(=O)c1ncn([C@@H]2O[C@H](CO)[C@@H](O)[C@H]2O)n1 [Ribavirin, reference compound]
CC: Cell Cycle score (HL60 cells): 0.040 | CM: Cell morphology score (HL60 cells): 0.010 | CMI: Cell membrane integrity score (HL60 cells): 0.070 | GSH: Glutathione score (HL60 cells): 0.060 | MMP: Mitochondrial membrane depolarization score (HL60 cells): 0.000 | NMI1: Nuclear membrane integrity 1 score (HL60 cells): 0.16 | NMI2: Nuclear membrane integrity 2 score (HL60 cells): 0.030 | ROS: Reactive superoxide species score (HL60 cells): 0.23 | CHI: Cell Health Index (HL60 cells): 0.16

CN(CCOc1ccc(CC2SC(=O)NC2=O)cc1)c1ccccn1 (stereo not shown) [Rosiglitazone, reference compound]
CC: Cell Cycle score (HL60 cells): 0.27 | CM: Cell morphology score (HL60 cells): 0.49 | CMI: Cell membrane integrity score (HL60 cells): 0.23 | GSH: Glutathione score (HL60 cells): 0.53 | MMP: Mitochondrial membrane depolarization score (HL60 cells): 0.050 | NMI1: Nuclear membrane integrity 1 score (HL60 cells): 0.23 | NMI2: Nuclear membrane integrity 2 score (HL60 cells): 0.27 | ROS: Reactive superoxide species score (HL60 cells): 0.070 | CHI: Cell Health Index (HL60 cells): 0.37

C=C(C)[C@H]1Cc2c(ccc3c2O[C@@H]2COc4cc(OC)c(OC)cc4[C@@H]2C3=O)O1 [Rotenone, reference compound]
CC: Cell Cycle score (HL60 cells): 0.70 | CM: Cell morphology score (HL60 cells): 0.93 | CMI: Cell membrane integrity score (HL60 cells): 0.83 | GSH: Glutathione score (HL60 cells): 0.79 | MMP: Mitochondrial membrane depolarization score (HL60 cells): 0.99 | NMI1: Nuclear membrane integrity 1 score (HL60 cells): 0.54 | NMI2: Nuclear membrane integrity 2 score (HL60 cells): 0.76 | ROS: Reactive superoxide species score (HL60 cells): 0.94

CCC(C)(C)C(=O)O[C@H]1C[C@@H](C)C=C2C=C[C@H](C)[C@H](CC[C@@H]3C[C@@H](O)CC(=O)O3)[C@H]21 [Simvastatin, reference compound]
CC: Cell Cycle score (HL60 cells): 0.12 | CM: Cell morphology score (HL60 cells): 0.030 | CMI: Cell membrane integrity score (HL60 cells): 0.080 | GSH: Glutathione score (HL60 cells): 0.41 | MMP: Mitochondrial membrane depolarization score (HL60 cells): 0.060 | NMI1: Nuclear membrane integrity 1 score (HL60 cells): 0.29 | NMI2: Nuclear membrane integrity 2 score (HL60 cells): 0.10 | ROS: Reactive superoxide species score (HL60 cells): 0.11

O=C(O)c1cc(/N=N/c2ccc(S(=O)(=O)Nc3ccccn3)cc2)ccc1O [Sulfasalazine, reference compound]
CC: Cell Cycle score (HL60 cells): 0.10 | CM: Cell morphology score (HL60 cells): 0.010 | CMI: Cell membrane integrity score (HL60 cells): 0.060 | GSH: Glutathione score (HL60 cells): 0.030 | MMP: Mitochondrial membrane depolarization score (HL60 cells): 0.31 | NMI1: Nuclear membrane integrity 1 score (HL60 cells): 0.14 | NMI2: Nuclear membrane integrity 2 score (HL60 cells): 0.63 | ROS: Reactive superoxide species score (HL60 cells): 0.090

CC/C(=C(\c1ccccc1)c1ccc(OCCN(C)C)cc1)c1ccccc1 [Tamoxifen, reference compound]
CC: Cell Cycle score (HL60 cells): 0.98 | CM: Cell morphology score (HL60 cells): 1.00 | CMI: Cell membrane integrity score (HL60 cells): 1.00 | GSH: Glutathione score (HL60 cells): 1.00 | MMP: Mitochondrial membrane depolarization score (HL60 cells): 1.00 | NMI1: Nuclear membrane integrity 1 score (HL60 cells): 1.00 | NMI2: Nuclear membrane integrity 2 score (HL60 cells): 0.99 | ROS: Reactive superoxide species score (HL60 cells): 1.00

Cc1cn([C@@H]2C[C@@H](O)[C@H](CO)O2)c(=O)[nH]c1=O [Telbivudine, reference compound]
CC: Cell Cycle score (HL60 cells): 0.020 | CM: Cell morphology score (HL60 cells): 0.010 | CMI: Cell membrane integrity score (HL60 cells): 0.040 | GSH: Glutathione score (HL60 cells): 0.070 | MMP: Mitochondrial membrane depolarization score (HL60 cells): 0.010 | NMI1: Nuclear membrane integrity 1 score (HL60 cells): 0.11 | NMI2: Nuclear membrane integrity 2 score (HL60 cells): 0.050 | ROS: Reactive superoxide species score (HL60 cells): 0.030

CC(C)(C)c1ccc(C(O)CCCN2CCC(C(O)(c3ccccc3)c3ccccc3)CC2)cc1 (stereo not shown) [Terfenadine, reference compound]
CC: Cell Cycle score (HL60 cells): 0.98 | CM: Cell morphology score (HL60 cells): 1.00 | CMI: Cell membrane integrity score (HL60 cells): 1.00 | GSH: Glutathione score (HL60 cells): 1.00 | MMP: Mitochondrial membrane depolarization score (HL60 cells): 1.00 | ROS: Reactive superoxide species score (HL60 cells): 1.00

COc1cc2c(Nc3ccc(Cl)c(Cl)c3F)ncnc2cc1OC[C@@H]1C[C@@H]2CN(C)C[C@@H]2C1 [Tesevatinib, reference compound]
CC: Cell Cycle score (HL60 cells): 0.96 | CM: Cell morphology score (HL60 cells): 1.00 | CMI: Cell membrane integrity score (HL60 cells): 1.00 | GSH: Glutathione score (HL60 cells): 1.00 | MMP: Mitochondrial membrane depolarization score (HL60 cells): 1.00 | NMI1: Nuclear membrane integrity 1 score (HL60 cells): 0.91 | NMI2: Nuclear membrane integrity 2 score (HL60 cells): 0.99 | ROS: Reactive superoxide species score (HL60 cells): 1.00 | CHI: Cell Health Index (HL60 cells): 0.92

CSc1ccc2c(c1)N(CCC1CCCCN1C)c1ccccc1S2 (stereo not shown) [Thioridazine, reference compound]
CC: Cell Cycle score (HL60 cells): 0.89 | CM: Cell morphology score (HL60 cells): 1.00 | CMI: Cell membrane integrity score (HL60 cells): 1.00 | GSH: Glutathione score (HL60 cells): 1.00 | MMP: Mitochondrial membrane depolarization score (HL60 cells): 1.00 | NMI1: Nuclear membrane integrity 1 score (HL60 cells): 1.00 | NMI2: Nuclear membrane integrity 2 score (HL60 cells): 1.00 | ROS: Reactive superoxide species score (HL60 cells): 1.00 | CHI: Cell Health Index (HL60 cells): 0.85

COc1ccc(/C=C/C(=O)Nc2ccccc2C(=O)O)cc1OC [Tranilast, reference compound]
CC: Cell Cycle score (HL60 cells): 0.10 | CM: Cell morphology score (HL60 cells): 0.020 | CMI: Cell membrane integrity score (HL60 cells): 0.13 | GSH: Glutathione score (HL60 cells): 0.030 | MMP: Mitochondrial membrane depolarization score (HL60 cells): 0.17 | NMI1: Nuclear membrane integrity 1 score (HL60 cells): 0.73 | NMI2: Nuclear membrane integrity 2 score (HL60 cells): 0.30 | ROS: Reactive superoxide species score (HL60 cells): 0.12 | CHI: Cell Health Index (HL60 cells): 0.32

CC(c1cc2ccccc2s1)N(O)C(N)=O (stereo not shown) [Zileuton, reference compound]
CC: Cell Cycle score (HL60 cells): 0.11 | CM: Cell morphology score (HL60 cells): 0.020 | CMI: Cell membrane integrity score (HL60 cells): 0.010 | GSH: Glutathione score (HL60 cells): 0.020 | MMP: Mitochondrial membrane depolarization score (HL60 cells): 0.060 | NMI1: Nuclear membrane integrity 1 score (HL60 cells): 0.17 | NMI2: Nuclear membrane integrity 2 score (HL60 cells): 0.080 | ROS: Reactive superoxide species score (HL60 cells): 0.070 | CHI: Cell Health Index (HL60 cells): 0.19
